Results reported in PMC4075989 (Biochemistry, 2014).
Values belong to the compound of their own block, whether it stands above or below them. Where a SMILES comes first, the peptide text is derived from it. [ ]: non-standard residue; d: D form. 2Nal = N[C@@H](Cc1ccc2ccccc2c1)C(=O)O

How the values were obtained:
Serum stability test = type: in vitro ADME; details: human, 25% human serum (supernatant after centrifugation)
[1] = test system: HEK293, MCF-7, A549, H1650, and H1299; assay: MTT cytotoxicity assay; type: cell-based, human; details: triplicates
mammalian cells = details: cited from earlier work
[2] = test system: glucocorticoid receptor (C638G)-GFP fusion (GR-GFP) in HeLa cells; assay: GR-GFP translocation assay

Compound: N=C(N)NCCC[C@H](NC(=O)[C@H](CCCNC(=N)N)NC(=O)[C@H](CCCNC(=N)N)NC(=O)[C@H](CCC(N)=O)NC(=O)[C@H](CCCNC(=N)N)NC(=O)[C@H](CCCNC(=N)N)NC(=O)[C@H](CCCCN)NC(=O)[C@H](CCCCN)NC(=O)[C@H](CCCNC(=N)N)NC(=O)CNC(=O)[C@@H](N)Cc1ccc(O)cc1)C(=O)O [Tat]
- half-life (Serum stability test): ~30 min

- remaining at 24 h, 5 µM (Serum stability test): > 70%
Compound: N=C(N)NCCC[C@@H]1NC(=O)[C@H](CCCNC(=N)N)NC(=O)[C@H](CCCNC(=N)N)NC(=O)[C@H](Cc2ccc3ccccc3c2)NC(=O)[C@H](Cc2ccccc2)NC(=O)[C@H](CCC(N)=O)NC(=O)[C@H](CCCNC(=N)N)NC1=O [cFΦR4] (cyclo(F[2Nal]RRRRQ))
- growth inhibition after 72 h ([1]; 50 μM, 72 h): up to 20%
- growth inhibition after 24 or 48 h ([1]; up to 50 μM, any of five human cell lines): no significant growth inhibition
- efficiency of entering the cytoplasm and nucleus relative to nonaarginine (R9) (mammalian cells): 2–5 fold

Compound: C[C@@H]1C[C@H]2[C@@H]3CCC4=CC(=O)C=C[C@]4(C)[C@@]3(F)[C@@H](O)C[C@]2(C)[C@@]1(O)C(=O)CO [Dex, dexamethasone]
- effect of Rab5(Q79L) overexpression on TR [2]: no effect

- half-life (Serum stability test): ~30 min
Compound: N=C(N)NCCC[C@H](NC(=O)[C@H](CCCNC(=N)N)NC(=O)[C@H](CCCNC(=N)N)NC(=O)[C@H](CCCNC(=N)N)NC(=O)[C@H](CCCNC(=N)N)NC(=O)[C@H](CCCNC(=N)N)NC(=O)[C@H](CCCNC(=N)N)NC(=O)[C@H](CCCNC(=N)N)NC(=O)[C@@H](N)CCCNC(=N)N)C(=O)O [R9]
